# Experimental data taken from patent publication US8785662B2, “Anilide-based compounds for preserving wood and method of use thereof” (SDS Biotech K.K., priority 2010, dated 2014).
# Tested on: Fomitopsis palustris
# Test: Agar plate colony growth inhibition test on Fomitopsis palustris
# Type: cell-based
# Settings: 0.5 ppm in potato dextrose agar, 25° C., colony diameter on the seventh day vs control
# Description: Each of 1% w/v dimethylsulfoxide solution of compound A, compound B and comparative compounds 1 to 13 was prepared. A predetermined amount of the solutions diluted with dimethylsulfoxide were fully mixed in the sterilized potato dextrose agar medium, and 15 ml of the resultant medium was poured into a petri dish 90 mm in diameter and allowed to stand at room temperature. As a control, the potato dextrose agar medium added with dimethylsulfoxide only was also prepared. […] The fungi was cultivated in the petri dish at 25° C., and the diameter of the colony spread from the source of inoculum was measured on the seventh day. The growth inhibition ratio between the diameter of the test colony and that of the control was determined by the following formula as an indication of the degree of inhibition. Compounds A and B apparently had greater effects on Fomitopsis palustris compared to the compounds which had been disclosed in the past. Growth inhibition ratio (%)={(diameter of the control colony−diameter of the test colony)/diameter of the control colony}×100 [Formula 1]
row,SMILES,Degree of inhibition on Fomitopsis palustris at 0.5 ppm
1,"Cc1ccccc1C(=O)Nc1cccc(OC(C)C)c1 [compound 5, 3′-isopropoxy-2-methylbenzoic acid anilide]",▴ (inhibition ratio of 25 to 50%)
2,"CC(C)c1cccc(NC(=O)c2ccoc2)c1 [compound 7, 3′-isopropyl-3-furancarboxylic acid anilide]",x (inhibition ratio of 25% or less)
3,"Cc1ncsc1C(=O)Nc1cccc(C(C)C)c1 [compound 9, 3′-isopropyl-4-methylthiazole-5-carboxylic acid anilide]",x (inhibition ratio of 25% or less)
4,"Cc1occc1C(=O)Nc1cccc(C(C)C)c1 [compound 8, 3′-isopropyl-2-methylfuran-3-carboxylic acid anilide]",▴ (inhibition ratio of 25 to 50%)
5,"CCc1cccc(NC(=O)c2cc(C)oc2C)c1 [compound 2, 3′-ethyl-2,5-dimethylfuran-3-carboxylic acid anilide]",▴ (inhibition ratio of 25 to 50%)
6,"Cc1cccc(NC(=O)c2cc(C)oc2C)c1 [compound 3, 3′-methyl-2,5-dimethylfuran-3-carboxylic acid anilide]",x (inhibition ratio of 25% or less)
7,"CC(C)Oc1cccc(NC(=O)c2ccccc2C(F)(F)F)c1 [compound 4, 3′-isopropoxy-2-trifluoromethyl benzoic acid anilide]",▴ (inhibition ratio of 25 to 50%)
8,"Cc1cc(C(=O)Nc2cccc(C(C)C)c2)c(C)o1 [compound 1, 3′-isopropyl-2,5-dimethylfuran-3-carboxylic acid anilide]",▴ (inhibition ratio of 25 to 50%)
9,"Cc1nc(C)c(C(=O)Nc2cccc(C(C)C)c2)s1 [compound 10, 3′-isopropyl-2,4-dimethyl-1,3-thiazole-5-carboxylic acid anilide]",Δ (inhibition ratio of 50 to 75%)
10,"Cc1cc(C(=O)Nc2cccc(C(C)C)c2)c(C)[nH]1 [compound 12, 3′-isopropyl-2,5-dimethylpyrrole-3-carboxylic acid anilide]",x (inhibition ratio of 25% or less)
11,"Cc1ccccc1C(=O)Nc1cccc(C(C)C)c1 [compound 6, 3′-isopropyl-2-methylbenzoic acid anilide]",▴ (inhibition ratio of 25 to 50%)
12,"Cc1cc(C(=O)Nc2cccc(C(C)C)c2)c(C(F)(F)F)o1 [Compound A, 3′-isopropyl-5-methyl-2-trifluoromethylfuran-3-carboxylic acid anilide]",∘ (inhibition ratio of 75% or more)
13,"Cc1nc(C(F)(F)F)c(C(=O)Nc2cccc(C(C)C)c2)s1 [compound 11, 3′-isopropyl-2-methyl-4-trifluoromethyl-1,3-thiazole-5-carboxylic acid anilide]",▴ (inhibition ratio of 25 to 50%)
14,"CC(C)c1cccc(NC(=O)c2cn(C)nc2C(F)(F)F)c1 [compound 13, 3′-isopropyl-1-methyl-3-trifluoromethylpyrazole-4-carboxylic acid anilide]",▴ (inhibition ratio of 25 to 50%)
15,"Cc1cc(C(=O)Nc2cccc(OC(C)C)c2)c(C(F)(F)F)o1 [Compound B, 3′-isopropoxy-5-methyl-2-trifluoromethylfuran-3-carboxylic acid anilide]",∘ (inhibition ratio of 75% or more)

# Tested on: Trametes versicolor
# Test: Agar plate colony growth inhibition test on Trametes versicolor, single compounds and mixtures with triazoles (Colby)
# Type: cell-based
# Settings: single compound 0.2 ppm, potato dextrose agar, 25° C., seventh day
# Description: Each of 1% w/v dimethylsulfoxide solution of compound A, compound B, cyproconazole (manufactured by Wako Pure Chemical Industries, Ltd.), epoxyconazole (manufactured by Wako Pure Chemical Industries, Ltd.) and tetraconazole (manufactured by Wako Pure Chemical Industries, Ltd.) was prepared. The solutions diluted with dimethylsulfoxide were fully mixed in the sterilized potate dextrose agar medium, and 15 ml of the resultant medium was poured into a petri dish 90 mm in diameter and allowed to stand at room temperature. As a control, the potate dextrose agar medium added with dimethylsulfoxide only was also prepared. After the medium was solidified, the mycelia was scooped with the medium from the colony of Trametes versicolor as being a typical wood-decaying fungi, which had been cultivated in advance, using a cork bailer 5 mm in diameter; and inoculated in the center of the test medium. The fungi was cultivated in the petri dish at 25° C., and the diameter of the colony spread from the source of inoculum was measured on the seventh day. The growth inhibition ratio by comparing the diameter of the test colony to that of the control was determined by the above-mentioned formula as an indication of the actual measured growth inhibition ratio. The theoretical efficacy ratio of the mixture of the active ingredients (i.e. theoretical growth inhibition ratio) was determined using the following Colby's formula (R. S. Colby, Weeds 15, 20-22 (1967)) to thereby be compared with the actual-measured efficacy ratio ([…]). […] Colby's formula: E=x+y−x·y/100 [Formula 2] E: theoretical efficacy ratio (theoretical growth inhibition ratio) represented by the ratio (%) to the control when the mixture of active compound B (concentration b) and C (concentration c) was used. x: efficacy ratio (growth inhibition ratio) represented by the ratio (%) to the control when active compound B was used at a concentration of b. y: efficacy ratio (growth inhibition ratio) represented by the ratio (%) to the control when active compound C was used at a concentration of c.
row,SMILES,Actual measured growth inhibition ratio (%)
1,"Fc1ccc([C@]2(Cn3cncn3)O[C@H]2c2ccccc2Cl)cc1 (racemic) [Epoxiconazole, epoxyconazole]",24
2,"FC(F)C(F)(F)OCC(Cn1cncn1)c1ccc(Cl)cc1Cl (centres unmarked) [Tetraconazole, tetraconazole]",25
3,CC(C1CC1)C(O)(Cn1cncn1)c1ccc(Cl)cc1 (centres unmarked) [cyproconazole],33
4,"Cc1cc(C(=O)Nc2cccc(C(C)C)c2)c(C(F)(F)F)o1 [Compound A, 3′-isopropyl-5-methyl-2-trifluoromethylfuran-3-carboxylic acid anilide]",49
5,"Cc1cc(C(=O)Nc2cccc(OC(C)C)c2)c(C(F)(F)F)o1 [Compound B, 3′-isopropoxy-5-methyl-2-trifluoromethylfuran-3-carboxylic acid anilide]",44
